Laboratory results: patent publication US8227616B2, “Cyanopyridine antibacterial agents and methods of use thereof” (Wisconsin Alumni Research Foundation, priority 2006, dated 2012)
Values after ≈ are worked out from the molar mass of the structure shown.

Assays:
S. aureus ATCC 10390 = assay: Agar overlay TTC assay; assay type: cell-based, Staphylococcus aureus; settings: macroarray copies, 15 mL agar
Text: To take advantage of the spatially-addressed nature of the macroarray format, an agar overlay assay was employed that utilizes TTC (triphenyl tetrazolium chloride) as a visualization agent (FIG. 2[…].; Lu, A. T.; Solas, D. W.; Gore, […].; Coffin, […].; Wang, […].; Look, G. C.; Campbell, […]. Antimicrob. Agents Chemother. 1998, 1447-1453. Unfortunately, during macroarray synthesis the planarity of the support is not fully maintained, and small wrinkles develop in this particular assay. This problem was solved by using an adaptation of the common Western Blot technique to copy the macroarray members from the support to fresh wrinkle-free sheets while maintaining the spatially-addressed nature. This transfer can be completed in 90 seconds and four copies can be made at a time, however to date, it is applicable only for smaller macroarrays (6 cm×6 cm, 16 spots). The full macroarray was easily divided into these dimensions. The copies allowed for replicates to be made, and the original, which cannot be used in the assay, is used to validate the compounds by LCMS. As an added feature, the sensitivity of the assay was tuned by simply changing the amount of agar applied to the array. The copies generated in the assay can also be easily used to screened against multiple organisms. […] This assay format also took advantage of the spatially addressed nature of the arrays (FIG. 2C). […]

[1] = test system: Methicillin-resistant S. aureus ATCC 33591 (MRSA); assay: MIC determination with authentic compounds resynthesized in solution; assay type: cell-based; settings: Staphylococcus aureus; Table 3; authentic sample, only trans isomers of chalcones; error reflects step size in the serial dilutions
Experimental: For estimated MIC determination, DMSO was added to the dried compound residue obtained from a single spot to afford ca. 100 μL of a 2 mM stock solution. Aliquots (5 μL) of these solutions were added to a 96-well plate, followed by 195 μL of diluted S. aureus 10390 (10^6 CFUs/mL) to yield ca. 50 μM final concentrations. The plates were swirled for 1 h to ensure compound dissolution, incubated for 12 h at 37° C., and the absorbance at 595 nm was recorded using a plate reader. […] Actual MIC values were determined for lead compounds resynthesized in solution using an analogous procedure with solutions of known concentration (see).
Dose response growth inhibition curves were determined for each active compound (resynthesized in solution) against S. aureus 10390 (SA) and methicillin-resistant S. aureus 33591 (MRSA). […] MIC assays were performed in quadruplicate.

MIC [1]: 3 ± 0.5 µM (≈ 1.08 µg/mL)
Compound: O=C(/C=C/c1cc(C(F)(F)F)cc(C(F)(F)F)c1)c1cccc(O)c1 [Compound 4Bv, 3′-hydroxy-3,5-bis(trifluoromethyl)chalcone]
relative activity in agar overlay TTC assay (S. aureus ATCC 10390): most active
